The test system of assay [1] is Jurkat cells. The assay can be described thus: Cellular uptake assay by flow cytometry. The class given is cell-based. Conditions: for Mean fluorescence intensity: Jurkat cells. The procedure:
All apparatuses were sterilized by autoclave sterilizer, and the experimental surfaces were wiped with 70% ethanol. All operations were performed in a laminar flow hood. The number of cells was determined by a hemacytometer. There were 9 squares with 1.0 mm^2 area and 0.1 mm depth in the hemacytometer. The number of cells in the four corner squares was counted and averaged. The average was multiplied by 10^4 to obtain the number of cells in a 1 mL suspension. The cellular uptake experiments were performed using 8×10^5 cells. […] The cells were then washed with PBS (2 g/L KCl, 2 g/L KH2PO4, 80 g/L NaCl, 11.5 g/L Na2PO4) (2×400 μL) to remove the fetal bovine serum which might interfere with the proteolytic activity of trypsin. The cells were then incubated with 0.05% trypsin/EDTA in PBS for 5 minutes to remove the peptides which adhered to the cell surface rather than entry to the cell. The cells were washed with PBS (2×400 μL). The cells were then resuspended in 500λ PBS and transferred into the flow tube. The cells were terminated by adding Triton-X 100 to give the dead control group. Propidium iodide (PI) was added to all samples to stain the dead cells but should not stain the live cells. Fluorescence analysis for the Jurkat cells was performed with a flow cytometer (FACScan, Becton Dickinson Bioscience). The voltage of the photomultiplier tube for forward scatter, side scatter and propidium iodide was set to 270, 470, and 350, respectively. Live cells containing appropriate forward scatter and side scatter values were selected and gated as the P1 region for normal and live cells in the live control group. The minimum propidium iodide fluorescence intensity for the dead cells treated with propidium iodide in the P1 region was set as the threshold value for dead cells. In other words, cells with propidium iodide fluorescence below the threshold value would be deemed live cells. The fluorescence of 6-carboxyfluorescein was considered when the cell morphology was in the P1 region and the propidium iodide fluorescence intensity was lower than the threshold value. The 6-carboxyfluorescein fluorescence intensity was acquired for 10,000 events at room temperature. The data presented are the mean fluorescence intensity for the 10,000 cells. Each experiment was independently repeated at least three times.
Cellular uptake experiments were performed on Jurkat cells, because these cells belonged to a CD4+ helper T cell cancer cell line which was the target of HIV. Jurkat cells were incubated separately with various concentration (7, 30, 60, 120 μM) of Flu-XaaTat for 15 minutes at 37° C. in the presence of fetal bovine serum, and then treated with trypsin to remove cell-surface bound peptide.
A general note: In flow cytometry, cells or beads pass a laser one at a time.

In assay [2] the test system is Jurkat cells. In words: Fluorescence microscope of live Jurkat cells. The class given is cell-based. Conditions: 37° C.; for Cellular uptake seen in fluorescence microscopy images: 7 μM peptide, 15 minutes, fetal bovine serum, trypsin 5 minutes, FIG. 1; for Cellular uptake seen in fluorescence microscope images: 30 μM peptide, 5% CO2, 15 minutes, trypsinized 10 minutes, FIG. 7. How it is done:
[…] After incubation, the suspension was centrifuged at 2200 rpm. The cells were washed with phosphate buffered saline (137 mM NaCl, 2.7 mM KCl, 10 mM sodium phosphate dibasic, 2 mM potassium phosphate monobasic, pH 7.4) twice to remove extracellular peptide. […] Finally, cells were resuspended in 500 μL PBS containing 1 μg/mL propidium iodide. The cells were then examined by a fluorescence microscope (Olympus IX71) (492/517 nm; excitation/observation).

Assay [3] has as its target HIV TAR RNA. In words: Gel shift assay (EMSA) with fluorescein-labeled TAR RNA in the presence of poly(dI-dC). Format: binding. The procedure:
The fluorescein-labeled TAR RNA (F-TAR-RNA) was purchased from Sigma. F-TAR-RNA was dissolved in diethyl pyrocarbonate treated H2O to give a 50 μM solution. Binding assays were performed at room temperature. Peptide and RNA were incubated in pH 7.4 buffer (10 μL) containing Tris-HCl (50 mM), KCl (50 mM), poly-dIdC (10 μg/mL), 2% glycerol, and Triton X-100 (0.05%). The F-TAR-RNA concentration was 100 nM. The samples were analyzed by loading into 12% native polyacrylamide gels in […] and electrophoresis was performed with 140 V at room temperature. Dried gels were scanned by the Typhoon TRIO+ Variable Mode Imager. Bands corresponding to the free and bound RNA were quantified using ImageQuant software. The apparent dissociation constants were globally derived from the quantified data assuming a 1:1 binding stoichiometry.
Background: A gel shift assay detects complexes by their altered migration in electrophoresis.

Assay [4] has as its target HIV TAR RNA. The assay can be described thus: Fluorescence anisotropy binding of Tat peptides to fluorescein-labeled TAR RNA. As to conditions: Table 2; read-out: KD, binding affinity of Tat-peptide and TAR RNA by fluorescence anisotropy assay. How it is done: The binding affinity of XaaTat peptides (Xaa=Agh, Arg and Agb) for TAR RNA was measured by fluorescence anisotropy using a Varian Cary Eclipse fluorescence spectrophotometer. The anisotropy (r) was calculated using the following equation: […]
where Ivv, Ivh, Ihh, Ihv are the fluorescence intensities with the excitation polarizer and emission polarizer is oriented perpendicular (Ivh and Ihv) and parallel (Ivv and Ihh) to the direction of the polarized excitation. The fluorescein-labeled TAR RNA (F-TAR-RNA) was excited at 490 nm and the polarized emissions were monitored at 512 nm. The slits were set at 10 nm for both excitation and emission. The integration time was 20 seconds. All data were measured in a Sub-Micro (Starna Cell, Inc.) with a starting volume of 160 μL. Each addition (1 μL) of XaaTat was equilibrated for two minutes before the fluorescence signal was recorded. All experiments were performed at room temperature in TKT buffer (TKT: 50 mM Tris-HCl, pH 7.4, 20 mM KCl and 0.02% Tween20). The initial concentration of F-TAR-RNA was 25 nM. The TKT solution and peptide stock solution were both equilibrated at room temperature more than 20 minutes before the experiment. The experiment was repeated three times independently. For every single point, three measurements were performed and the average value was used for deriving the apparent (apparent KD). The apparent for the peptide-RNA complex was derived by fitting the data assuming a 1:1 peptide-RNA stoichiometry. The fitting was performed using Kaleidagraph 3.52. (Synergy Software, CA).
For orientation: Polarisation of emitted light reports the rotation of a fluorescent probe.

Setting [5] is: in the presence of poly(dI-dC) at 25° C., Table 3, read-out: KD, dissociation constant of Tat-peptide and TAR RNA by gel shift assay.

The results in this text go back to patent US8524659B2, “RNA virus-derived peptides with modified side chains” (National Taiwan University, priority 2011, dated 2013).

“6-carboxyfluorescein-βAla-Tyr-Gly-Agb-Lys-Lys-Agb-Agb-Gln-Agb-Agb-Agb-NH2 [Flu-AgbTat]”: the “Uptake into cells compared to Flu-ArgTat and Flu-AghTat” value with Jurkat cells [1] (7 μM peptide, 15 minutes, 37° C., fetal bovine serum, FIG. 2A) came to 3 times. The “Cellular uptake seen in fluorescence microscopy images” value in the assay on Jurkat cells [2] is listed as “Obvious cellular uptake”.

Regarding “6-carboxyfluorescein-βAla-Tyr-Gly-Agh-Lys-Lys-Agh-Agh-Gln-Agh-Agh-Agh-NH2 [Flu-AghTat]”, the “Cellular uptake compared to Flu-ArgTat” value in the assay on Jurkat cells [1] (concentrations higher than 7 μM, FIG. 2B) is “more cellular uptake”. The “Cellular uptake seen in fluorescence microscopy images” value with Jurkat cells [2] is “Obvious cellular uptake”.

As for “6-carboxyfluorescein-βAla-Tyr-Gly-Arg-Lys-Lys-Arg-Arg-Gln-Arg-Arg-Arg-NH2 [Flu-ArgTat, reference compound]”, the Mean fluorescence intensity with Jurkat cells [1] (30 μM peptide) worked out at 2170 ± 1692 a.u; in the assay with Jurkat cells [1] (60 μM peptide), 5258 ± 2006 a.u; in the assay on Jurkat cells [1] (90 μM peptide) it was 7042 ± 1475 a.u; in the assay on Jurkat cells [1] (120 μM peptide), 8628 ± 3585 a.u. The “Cellular uptake seen in fluorescence microscopy images” value in the assay on Jurkat cells [2] is “Obvious cellular uptake”.

As to “6CF-βAla-Tyr-Gly-Arg-Lys-Lys-Arg-Arg-Gln-Arg-Arg-Cit-NH2 [6CF-Tat-Cit57]”, the Mean fluorescence intensity in the assay on Jurkat cells [1] (30 μM peptide) turned out to be 465 ± 72 a.u; in the assay on Jurkat cells [1] (60 μM peptide), 1696 ± 167 a.u; in the assay on Jurkat cells [1] (90 μM peptide) it was 4031 ± 377 a.u; in the assay with Jurkat cells [1] (120 μM peptide) it was 4964 ± 811 a.u. Besides, in the assay on Jurkat cells [2], the “Cellular uptake seen in fluorescence microscope images” value was “significant cellular uptake”.

On to “6CF-βAla-Tyr-Gly-Arg-Lys-Lys-Arg-Arg-Gln-Arg-Cit-Arg-NH2 [6CF-Tat-Cit56]”, for which the Mean fluorescence intensity with Jurkat cells [1] (30 μM peptide) is 429 ± 95 a.u; in the assay on Jurkat cells [1] (60 μM peptide), 2305 ± 249 a.u; in the assay with Jurkat cells [1] (90 μM peptide), 6094 ± 792 a.u; in the assay with Jurkat cells [1] (120 μM peptide), 11617 ± 1339 a.u. The “Cellular uptake seen in fluorescence microscope images” value in the assay with Jurkat cells [2] is listed as “significant cellular uptake”.

“6CF-βAla-Tyr-Gly-Arg-Lys-Lys-Arg-Arg-Gln-Cit-Arg-Arg-NH2 [6CF-Tat-Cit55]”: the Mean fluorescence intensity in the assay on Jurkat cells [1] (30 μM peptide) came to 793 ± 267 a.u; in the assay on Jurkat cells [1] (60 μM peptide), 5750 ± 134 a.u; with Jurkat cells [1] (90 μM peptide), 9090 ± 707 a.u; in the assay on Jurkat cells [1] (120 μM peptide), 10152 ± 787 a.u. Besides, the “Cellular uptake seen in fluorescence microscope images” value in the assay with Jurkat cells [2] is “significant cellular uptake”.

For “6CF-βAla-Tyr-Gly-Arg-Lys-Lys-Arg-Cit-Gln-Arg-Arg-Arg-NH2 [6CF-Tat-Cit53]”, the Mean fluorescence intensity was 429 ± 19 a.u in the assay on Jurkat cells [1] (30 μM peptide), 3417 ± 288 a.u with Jurkat cells [1] (60 μM peptide), 6499 ± 109 a.u with Jurkat cells [1] (90 μM peptide) and 10861 ± 1096 a.u in the assay on Jurkat cells [1] (120 μM peptide). The “Cellular uptake seen in fluorescence microscope images” value with Jurkat cells [2] is “significant cellular uptake”.

As for “6CF-βAla-Tyr-Gly-Arg-Lys-Lys-Cit-Arg-Gln-Arg-Arg-Arg-NH2 [6CF-Tat-Cit52]”, the Mean fluorescence intensity was 1221 ± 116 a.u in the assay on Jurkat cells [1] (30 μM peptide), 5332 ± 612 a.u in the assay with Jurkat cells [1] (60 μM peptide), 10040 ± 726 a.u in the assay with Jurkat cells [1] (90 μM peptide) and 12378 ± 972 a.u in the assay on Jurkat cells [1] (120 μM peptide). Also, the “Cellular uptake seen in fluorescence microscope images” value in the assay on Jurkat cells [2] is recorded as “significant cellular uptake”.

In the case of “6CF-βAla-Tyr-Gly-Cit-Lys-Lys-Arg-Arg-Gln-Arg-Arg-Arg-NH2 [6CF-Tat-Cit49]”, the Mean fluorescence intensity is reported as 1791 ± 555 a.u with Jurkat cells [1] (30 μM peptide), 6452 ± 740 a.u with Jurkat cells [1] (60 μM peptide), 13284 ± 1441 a.u in the assay on Jurkat cells [1] (90 μM peptide) and 15784 ± 1567 a.u with Jurkat cells [1] (120 μM peptide). In addition, in the assay with Jurkat cells [2], the “Cellular uptake seen in fluorescence microscope images” value is “significant cellular uptake”.

Turning to “Ac-Tyr-Gly-Arg-Lys-Lys-Arg-Arg-Gln-Arg-Arg-Agp-NH2 [Ac-Agp57-Tat-NH2]”, the Kd at HIV TAR RNA [3] (in the presence of 10 μg/mL poly(dI-dC), FIG. 9, read-out: KD of peptide and TAR-RNA by gel shift assay) is 56 ± 12 nM.

As for “Ac-Tyr-Gly-Arg-Lys-Lys-Arg-Arg-Gln-Arg-Arg-Cit-NH2 [Tat-Cit57]”, the Kd came to 49 ± 6 nM at HIV TAR RNA [4] and 146 ± 30 nM on HIV TAR RNA [3] (setting [5]).

Consider “Ac-Tyr-Gly-Arg-Lys-Lys-Arg-Arg-Gln-Arg-Cit-Arg-NH2 [Tat-Cit56]”, for which the figures for the Kd at HIV TAR RNA [4] and at HIV TAR RNA [3] (setting [5]) were 55 ± 9 nM and 164 ± 40 nM, respectively.

Consider “Ac-Tyr-Gly-Arg-Lys-Lys-Arg-Arg-Gln-Cit-Arg-Arg-NH2 [Tat-Cit55]”, for which the Kd stood at 99 ± 14 nM on HIV TAR RNA [4] and 279 ± 74 nM at HIV TAR RNA [3] (setting [5]).

Take “Ac-Tyr-Gly-Arg-Lys-Lys-Arg-Cit-Gln-Arg-Arg-Arg-NH2 [Tat-Cit53]”: the Kd stood at 102 ± 11 nM on HIV TAR RNA [4] and 344 ± 73 nM at HIV TAR RNA [3] (setting [5]).

“Ac-Tyr-Gly-Arg-Lys-Lys-Cit-Arg-Gln-Arg-Arg-Arg-NH2 [Tat-Cit52]”: the Kd on HIV TAR RNA [4] was 116 ± 17 nM; at HIV TAR RNA [3] (setting [5]) it was 235 ± 45 nM.

Turning to “Ac-Tyr-Gly-Cit-Lys-Lys-Arg-Arg-Gln-Arg-Arg-Arg-NH2 [Tat-Cit49]”, the Kd at HIV TAR RNA [4] stood at 94 ± 13 nM; at HIV TAR RNA [3] (setting [5]) it was 138 ± 21 nM.
